The source of these data is ChEMBL document CHEMBL4219148, “Discovery of a highly potent orally bioavailable imidazo-[1, 2-a]pyrazine Aurora inhibitor” (Bioorg Med Chem Lett, 2018).

Each structure is given as a SMILES string.

Data set [1] concerns the target T1, Aurora kinase B (Homo sapiens, UniProt Q96GD4). Briefly: Inhibition of Aurora B in human HCT116 cells assessed as reduction in phosphorylation of Histone H3 at Ser10 residue incubated for 1 hr by Hoechst 33342 dye-based immunofluorescence microscopic method. It is filed as cell-based.
The next data set addresses T2, Aurora kinase A (Homo sapiens, UniProt O14965).
T2 sequence (O14965 whole entry): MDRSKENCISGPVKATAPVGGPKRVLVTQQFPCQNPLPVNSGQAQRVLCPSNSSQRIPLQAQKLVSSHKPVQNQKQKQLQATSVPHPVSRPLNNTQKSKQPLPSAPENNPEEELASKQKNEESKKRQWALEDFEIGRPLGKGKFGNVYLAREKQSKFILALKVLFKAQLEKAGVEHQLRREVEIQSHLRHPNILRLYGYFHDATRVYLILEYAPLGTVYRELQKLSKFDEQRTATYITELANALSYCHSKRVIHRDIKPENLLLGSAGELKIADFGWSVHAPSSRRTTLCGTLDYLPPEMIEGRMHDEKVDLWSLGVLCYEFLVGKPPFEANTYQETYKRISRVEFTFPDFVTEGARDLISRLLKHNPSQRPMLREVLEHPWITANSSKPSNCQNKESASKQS
Briefly: Inhibition of Aurora A (unknown origin) using Tamra-PKAtide as substrate by fluorescence polarization assay. For orientation: Polarisation of emitted light reports the rotation of a fluorescent probe.

Data set [2] has as its target T1, Aurora kinase B. As to the kind of experiment: Inhibition of Aurora B (unknown origin) using Tamra-PKAtide as substrate by fluorescence polarization assay.
Data set [3] can be described thus: AUC (0 to 6 hrs) in rat at 10 mg/kg, po. The data set is classed as ADME, organism-based. Further details: time < 6 hr, dose 10 mg/kg, route oral. The settings on record: in vivo.
Data set [4] in a line: Apparent permeability from apical to basolateral side in human intestinal Caco2 cells. The data set is classed as ADME, cell-based. The following applies: Caco-2.
The nature of data set [5]: AUC (0 to 24 hrs) in rat at 30 mg/kg, po. Further details: time < 24 hr, dose 30 mg/kg, route oral. It is filed as ADME, organism-based. The settings on record: in vivo.

The EC50 is the concentration at which the effect is half-maximal. One may read the IC50 as the point on the concentration scale where inhibition reaches its midpoint. A lower IC50 goes with greater potency. By AUC(0-t) is commonly meant the area under the concentration-time curve up to a stated or last time point. The low end stands for low exposure, the high end for high exposure. As a reminder, the Papp A→B is the apparent permeability from the apical to the basolateral side of a cell layer.

T1 sequence (Q96GD4 whole entry): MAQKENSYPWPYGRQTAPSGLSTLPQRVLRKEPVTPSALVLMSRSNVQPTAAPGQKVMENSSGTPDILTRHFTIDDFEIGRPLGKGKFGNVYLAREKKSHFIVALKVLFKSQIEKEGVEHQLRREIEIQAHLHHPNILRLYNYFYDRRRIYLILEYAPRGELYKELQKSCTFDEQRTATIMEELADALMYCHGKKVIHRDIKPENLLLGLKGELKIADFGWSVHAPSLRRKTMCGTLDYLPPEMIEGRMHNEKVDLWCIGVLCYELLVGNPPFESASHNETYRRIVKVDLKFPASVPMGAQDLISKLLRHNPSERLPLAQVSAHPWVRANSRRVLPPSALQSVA

Turning to `Cc1cn2c(-c3cn[nH]c3)cnc2c(Nc2cc(Cc3cccc(F)n3)ns2)n1`, the EC50 on Aurora kinase B [1] stood at 100 nM. The half-maximal inhibitory concentration (IC50) on Aurora kinase A is under 4 nM; against Aurora kinase B [2], under 13 nM. Moreover, the area under the curve AUC(0-t) at 6 h in data set [3] was 7.3 µM·h.
As for `Cc1cn2c(-c3cn[nH]c3)cnc2c(Nc2cc(Cc3cnccn3)ns2)n1`, the Papp A→B in data set [4] was 4.3 ×10⁻⁶ cm/s. Moreover, the EC50 at Aurora kinase B [1] worked out at 208 nM. Besides, the IC50 against Aurora kinase A was under 4 nM; against Aurora kinase B [2], under 13 nM. The compound also gave an AUC(0-t) at 6 h in data set [3] of 0.15 µM·h.
As for `Cc1ccc(Cc2cc(Nc3nc(C)cn4c(-c5cn[nH]c5)cnc34)sn2)nc1`, at Aurora kinase B [1], the half-maximal effective concentration (EC50) came out at 475 nM. In addition, the IC50 on Aurora kinase A was under 4 nM; against Aurora kinase B [2] it was under 13 nM. This compound registered an AUC(0-t) at 6 h in data set [3] of 3.4 µM·h.
With `Cc1cn2c(-c3cn[nH]c3)cnc2c(Nc2cc(Cc3ncccc3F)ns2)n1`, the EC50 on Aurora kinase B [1] worked out at 182 nM. The IC50 at Aurora kinase A is under 4 nM; on Aurora kinase B [2] it was under 13 nM. In data set [3], this compound registered an AUC(0-t) at 6 h of 1.4 µM·h.
With `Cc1cn2c(-c3cn[nH]c3)cnc2c(Nc2cc(Cc3ccc(F)cn3)ns2)n1`, the concentration for a half-maximal effect (EC50) at Aurora kinase B [1] is 486 nM. Further, the IC50 on Aurora kinase A is under 4 nM; at Aurora kinase B [2], under 13 nM. Further, in data set [3], the exposure AUC(0-t) at 6 h was found to be 5.5 µM·h.
Regarding `Cc1cn2c(-c3cn[nH]c3)cnc2c(Nc2cc(Cc3cccnc3)ns2)n1`, at Aurora kinase B [1], the EC50 is over 1000 nM. The IC50 was under 4 nM against Aurora kinase A and under 13 nM on Aurora kinase B [2].
On to `Cc1cn2c(-c3cn[nH]c3)cnc2c(Nc2cc(Cc3ncccc3C)ns2)n1`, for which the EC50 at Aurora kinase B [1] turned out to be 250 nM. Moreover, the half-maximal inhibitory concentration (IC50) against Aurora kinase A is under 4 nM; against Aurora kinase B [2], under 13 nM. The compound further registered an exposure AUC(0-t) at 6 h in data set [3] of 1.6 µM·h.
The matching figures for `Cc1ccnc(Cc2cc(Nc3nc(C)cn4c(-c5cn[nH]c5)cnc34)sn2)c1`: 376 nM, under 4 nM, under 13 nM and 4.6 µM·h.
For `Cc1cn2c(-c3cn[nH]c3)cnc2c(Nc2cc(Cc3cccc(C(=O)N4CCCCC4)n3)ns2)n1`, the concentration giving a half-maximal response (EC50) at Aurora kinase B [1] came to 245 nM. Besides, the IC50 was under 4 nM at Aurora kinase A and under 13 nM on Aurora kinase B [2]. Further, the AUC(0-t) at 6 h in data set [3] is 0.1 µM·h.
Take `COc1cccc(Cc2cc(Nc3nc(C)cn4c(-c5cn[nH]c5)cnc34)sn2)n1`: on Aurora kinase B [1], the concentration for a half-maximal effect (EC50) was 356 nM. Moreover, the results for the half-maximal inhibitory concentration (IC50) on Aurora kinase A and against Aurora kinase B [2] were under 4 nM and under 13 nM, respectively. This compound came in with an AUC(0-t) at 6 h in data set [3] of 5.5 µM·h.
With `Cc1cn2c(-c3cn[nH]c3)cnc2c(Nc2cc(Cc3ccncc3)ns2)n1`, on Aurora kinase B [1], the EC50 was over 1000 nM. Besides, the 50% inhibitory concentration (IC50) at Aurora kinase A was under 4 nM; at Aurora kinase B [2], under 13 nM.
As for `Cc1cn2c(-c3cn[nH]c3)cnc2c(Nc2cc(Cc3nccs3)ns2)n1`, the half-maximal effective concentration (EC50) on Aurora kinase B [1] stood at 170 nM. In addition, the values for the 50% inhibitory concentration (IC50) at Aurora kinase A and against Aurora kinase B [2] were under 4 nM and under 13 nM, respectively. This compound showed an exposure AUC(0-t) at 6 h in data set [3] of 3.9 µM·h.
Turning to `Cc1cn2c(-c3cn[nH]c3)cnc2c(Nc2cc(Cc3cccc(CN4CCCCC4)n3)ns2)n1`, the EC50 on Aurora kinase B [1] was 289 nM. The figures for the IC50 at Aurora kinase A and against Aurora kinase B [2] were under 4 nM and under 13 nM, respectively.
For `Cc1cn2c(-c3cn[nH]c3)cnc2c(Nc2cc(Cc3cccc(CO)n3)ns2)n1`, the concentration giving a half-maximal response (EC50) on Aurora kinase B [1] worked out at 559 nM. The 50% inhibitory concentration (IC50) was under 4 nM on Aurora kinase A and under 13 nM on Aurora kinase B [2].
Regarding `Cc1cn2c(-c3cn[nH]c3)cnc2c(Nc2cc(Cn3cccc(C)c3=O)ns2)n1`, on Aurora kinase B [1], the half-maximal effective concentration (EC50) was 487 nM. The IC50 is under 4 nM on Aurora kinase A and under 13 nM on Aurora kinase B [2].
For `Cc1cn2c(-c3cn[nH]c3)cnc2c(Nc2cc(Cn3ccnc3)ns2)n1` the same measures were 370 nM, under 4 nM and under 13 nM.
Turning to `Cc1cccc(Cc2cc(Nc3nc(C)cn4c(-c5cn[nH]c5)cnc34)sn2)n1`, the 50% effective concentration (EC50) at Aurora kinase B [1] came out at 88 nM. The IC50 is under 4 nM against Aurora kinase A and under 13 nM against Aurora kinase B [2]. In data set [3], this compound registered an AUC(0-t) at 6 h of 7.7 µM·h.
For `Cc1cn2c(-c3cn[nH]c3)cnc2c(Nc2cc(Cn3cccn3)ns2)n1`, at Aurora kinase B [1], the EC50 was determined as 184 nM. Moreover, the IC50 was under 4 nM against Aurora kinase A and under 13 nM against Aurora kinase B [2].
Consider `Cc1cn2c(-c3cn[nH]c3)cnc2c(Nc2cc(Cn3cccc3)ns2)n1`, for which, at Aurora kinase B [1], the EC50 worked out at 530 nM. Moreover, the IC50 against Aurora kinase A is under 4 nM; against Aurora kinase B [2] it was under 13 nM.
As to `Cc1cn2c(-c3cn[nH]c3)cnc2c(Nc2cc(Cc3ncccn3)ns2)n1`, the half-maximal effective concentration (EC50) at Aurora kinase B [1] came to 203 nM. Besides, the IC50 is under 4 nM against Aurora kinase A and under 13 nM against Aurora kinase B [2]. The compound also gave an AUC(0-t) at 6 h in data set [3] of 1.8 µM·h.
The matching figures for `Cc1cn2c(-c3cn[nH]c3)cnc2c(Nc2cc(C(NC(C)(C)C)c3ccccn3)ns2)n1` (racemic): under 16 nM, under 4 nM, under 13 nM and 1.6 µM·h.
For `Cc1cn2c(-c3cn[nH]c3)cnc2c(Nc2cc(C(c3ccccn3)N3CCC(F)CC3)ns2)n1` (racemic) the same measures were 83 nM, under 4 nM, under 13 nM and 0.45 µM·h.
For `Cc1cn2c(-c3cn[nH]c3)cnc2c(Nc2cc(C(c3ccccn3)N3CCCC3)ns2)n1` (racemic) the same measures were under 16 nM, under 4 nM, under 13 nM and 0.02 µM·h.
Take `Cc1cn2c(-c3cn[nH]c3)cnc2c(Nc2cc(C(NC3CCCC3)c3ccccn3)ns2)n1` (racemic): the EC50 at Aurora kinase B [1] is under 16 nM. In addition, the figures for the half-maximal inhibitory concentration (IC50) at Aurora kinase A and at Aurora kinase B [2] were under 4 nM and under 13 nM, respectively. Further, in data set [3], the AUC(0-t) at 6 h came to 0.67 µM·h.
For `Cc1cn2c(-c3cn[nH]c3)cnc2c(Nc2cc(C(c3ccccn3)N3CCCCC3)ns2)n1` (racemic) the same measures were under 16 nM, under 4 nM, under 13 nM and 0.21 µM·h.
As to `Cc1cn2c(-c3cn[nH]c3)cnc2c(Nc2cc(C(NC(C)(C)C)c3ccccn3)ns2)n1` (single isomer, unassigned; (-)), the half-maximal effective concentration (EC50) at Aurora kinase B [1] is 50 nM. Moreover, the half-inhibitory concentration (IC50) is at most 4 nM against Aurora kinase A and at most 13 nM on Aurora kinase B [2]. The compound also registered an AUC(0-t) at 24 h in data set [5] of 39 µM·h.
